In experiment [1] the target is T1, recombinant full length VIM (Homo sapiens, UniProt P08670).
T1 construct: 1-PAP labels recombinant full length VIM in vitro
The experiment can be described thus: In vitro photo-affinity labeling of recombinant proteins with 1-PAP. In kind it is binding. Here is the method: To identify the relevant cellular target of Compound 1, we incubated live FOXC2-HMLER cells with 2.5 μM 1-PAP, as prepared in Example 5, for 15 minutes and subjected these cells to UV irradiation. A sample containing both 1-PAP and a 20-fold molar excess of free Compound 1 was used to distinguish specific labeling events.
VIM consists of a long rod domain, which forms a coiled coil in the presence of other VIM molecules, as well as head and tail domains. To identify which portion of the protein was the relevant site of 1-PAP labeling, we expressed these domains as GST fusion proteins. […] VIM is one of four type III intermediate filament proteins, whose members additionally include Peripherin, glial fibrillary acidic protein (GFAP), and Desmin, which share 59%, 61%, and 62% sequence similarity to VIM respectively (SIM alignment, ExPASy) (E. Fuchs et al., Annu. Rev. Biochem. 63 (1994) 345-382).

Experiment [2] addresses T2, VIM (Homo sapiens, UniProt P08670).
T2 construct: endogenous in cells; host or cells: FOXC2-HMLER
Nature of the experiment: Immunofluorescent analysis of VIM filamentous architecture in HUVECs. The format is cell-based. The following applies: one-hour treatment.

The target of experiment [3] is T2, VIM. Nature of the experiment: Western blotting / immunofluorescence of VIM protein status in FOXC2-HMLER cells. The format is cell-based. The following applies: FOXC2-HMLER cells, Western blotting. The method, then:
Western blotting was performed essentially as described previously (M. J. Bollong et al. ACS Chem. Biol. 10 (2015) 2193-2198). Cells were collected by brief trypsinization and centrifugation at 500 g for 5 minutes. Cells were lysed by the addition of RIPA buffer with protease and phosphatase inhibitors (Roche). Lysates were incubated on ice for 30 minutes before eliminating insoluble protein content by centrifugation at 12,000 g for 5 minutes at 4° C. Protein concentrations were determined from absorbance values obtained by a Nanodrop instrument. Equal amounts of protein were then mixed with 2× loading buffer (100 mM TRIS-HCl, 1% SDS, 10% glycerol, 0.1% bromophenol blue 10%-mercaptoethanol) and exposed to 95° C. for 5 minutes. Protein was separated by SDS-PAGE using 4-12% Bis-Tris Gels (Invitrogen) and then transferred to PVDF membranes (Invitrogen) using semi-dry transfer. Membranes were blocked for 1 hour at room temperature in 5% non-fat dry milk in TBST (Tris buffered saline with 0.1% Tween 20). Membranes were incubated overnight with primary antibodies in blocking buffer overnight at the dilutions ranging from 1:500 to 1:2000. After 3 washes with TBST, membranes were then exposed to HRP-conjugated secondary antibodies (1:5000 in blocking buffer, Sigma) for one hour followed by one hour of additional washing with TBST. Relative protein content was visualized using film and SuperSignal West Dura Substrate. For VIM degradation blots, 20-60 μg of protein content was loaded per gel lane and the anti-VIM antibody V9 (ab8069) was used to blot for VIM protein content. Phospho-protein blots were performed as above with the exception that primary antibodies were incubated in 5% bovine serum albumin in TBST instead of milk.
We performed Western blotting analysis of FOXC2-HMLER cells treated for 24 hours with Compound 1 with commercially available antibodies targeting specific phosphorylated VIM species (P-S39, P-S56, P-S83).
In contrast, only a small fraction of cells undergoing mitosis stained positive for P-S56-VIM in DMSO-treated controls, consistent with previous reports identifying phosphorylation at S56 as a modification catalyzed by cyclin dependent kinase 1 (CDK1; FIG. 6) (T. Yamaguchi, T. et al., J. Cell Biol. 171 (2005) 431-436.
(In general: A western blot detects proteins with antibodies after separation by electrophoresis.)

The test system of experiment [4] is FOXC2-HMLER cells. Nature of the experiment: Confocal imaging of thymidine synced FOXC2-HMLER cells at metaphase. In kind it is cell-based, human. The text has this:
Because Compound 1 induces a hyper-phosphorylated VIM phenotype, we sought to determine if Compound 1's engagement of VIM might interfere at an alternative stage of mitosis. We therefore performed time course confocal imaging studies of Compound 1 treated FOXC2-HMLER cells after their release from thymidine blocking-based cell cycle synchronization.
Compound 1 treatment also disrupted the ability of β-tubulin to faithfully form the fine spindle microtubules of the mitotic spindle, instead resulting in a compressed phenotype with radiating projections connecting unaligned chromosomes. To assess the uniqueness of this phenotype, we evaluated the metaphase phenotypes of other chemical inhibitors which have shown to alter mitotic progression. These included inhibitors of centromere-associated protein E (CENP-E, also called kinesin-7, GSK92395), kinesin spindle protein (KSP, also called Eg5, Ispinesib), polo like kinases (PLK1/2/3, BI2536), and aurora kinases (AURKA/B/C, VX-680).

In experiment [5] the test system is FOXC2-HMLER cells. Nature of the experiment: Multinucleation of FOXC2-HMLER cells. The format is cell-based, human. The following applies: 250-500 nM, 24 hours.
Experiment [6] deals with FOXC2-expressing HMLER cells. The experiment can be described thus: Cell Titer Glo viability of FOXC2-HMLER cells (high throughput screen and 10-point response). In kind it is cell-based. The following applies: Homo sapiens; 72-hour incubation; read-out: FOXC2-HMLER IC50. A digest of the protocol: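 FOXC2-HMLER cells (HMLER run in parallel) seeded at 1,000 cells/well in MEGM, attached 1 h, then given compound in DMSO (2 μM in the screen). After 72 h, viability was read by Cell Titer Glo luminescence.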
Background: Cellular ATP, detected with luciferase, serves as a proxy for viable cell number.

A further experiment relates to control HMLER cells. The experiment can be described thus: Cell Titer Glo viability of control HMLER cells. The format is cell-based. The following applies: Homo sapiens; 72-hour incubation; read-out: control HMLER IC50. The text has this: An engineered cancer cell line HMLER as an isogenic screening system was employed to identify compounds that are selectively toxic to the FOXC2 positive genotype. HMLER cells are derived from mammary epithelial cells (HMECs), but are virally transformed with the […] oncogene (G12V), human telomerase reverse transcriptase (hTERT), and SV40 large-T antigen (B. Elenbaas, B. et al. Genes Dev. 15 (2001) 50-65). Expression of these genes endows HMLER cells with functional immortality and tumorigenic potential at high seeding number (>10^6 cells; Hollier (2013)). […]
For high throughput screening, FOXC2-HMLER and HMLER cells were plated at 10^3 cells per well in white 384-well plates in 50 μL of MEGM medium (Lonza). […] After 72-hour incubation, 30 μL of a Cell Titer Glo solution (diluted 1:6 in water, Promega) was dispensed into each well and luminance values were recorded using an Envision plate reader. […]
More specifically, in the high throughput screening assay above, each cell line was plated at 1,000 cells per well in 384-well plates, treated for 72 hours with 2 μM of test compound, and the viability of each line was determined in parallel by Cell Titer Glo (Promega) luminance measurements. […]

SMILES strings stand for the structures.

T2 sequence (P08670 whole entry): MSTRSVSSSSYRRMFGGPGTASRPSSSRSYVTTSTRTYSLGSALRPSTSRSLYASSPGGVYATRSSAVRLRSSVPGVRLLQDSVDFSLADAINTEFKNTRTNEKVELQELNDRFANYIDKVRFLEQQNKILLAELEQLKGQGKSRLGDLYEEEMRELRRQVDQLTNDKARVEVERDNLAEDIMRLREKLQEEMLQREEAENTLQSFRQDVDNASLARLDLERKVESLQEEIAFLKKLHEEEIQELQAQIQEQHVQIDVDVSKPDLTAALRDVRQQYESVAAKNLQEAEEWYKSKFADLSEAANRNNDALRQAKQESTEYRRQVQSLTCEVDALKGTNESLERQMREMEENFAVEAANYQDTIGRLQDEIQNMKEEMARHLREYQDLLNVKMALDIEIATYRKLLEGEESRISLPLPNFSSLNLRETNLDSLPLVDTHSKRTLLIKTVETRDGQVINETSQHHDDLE
T1 sequence (P08670 whole entry): as above

Regarding `CC1(CC[C@H](NC(=O)CCOCCOCCNC(=O)CCCC[C@@H]2SC[C@@H]3NC(=O)N[C@@H]32)C(=O)NCCOCCOCCOc2cc(Cl)cc(N3CCN(c4cnnc5c(Cl)cccc45)CC3)c2)N=N1` [Compound 1-PAP, N—((S)-1-(3-chloro-5-(4-(8-chlorocinnolin-4-yl)piperazin-1-yl)phenoxy)-11-(2-(3-methyl-3H-diazirin-3-yl)ethyl)-10,13-dioxo-3,6,16,19-tetraoxa-9,12-diazahenicosan-21-yl)-5-((3aS,4S,6aR)-2-oxohexahydro-1H-thieno[3,4-d]imidazol-4-yl)pentanamide], in experiment [1] (VIM vs Peripherin, GFAP, Desmin recombinant preparations), the “labeling of type III intermediate filament proteins” value is on record as “labeled VIM exclusively”. The “labeling of VIM domains expressed as GST fusion proteins” value in experiment [1] (head, rod and tail domains) is “binds specifically and potently to the rod domain of VIM”.

In the case of `CC1=C(CO)C(=O)O[C@@H]([C@@H](C)[C@H]2CC[C@H]3[C@@H]4C[C@H]5O[C@]56[C@@H](O)C=CC(=O)[C@]6(C)[C@H]4CC[C@]23C)C1` [WIF-A, Withaferin A, reference compound], on VIM [2], the “VIM filamentous architecture in HUVECs” value was “promoted the destruction of fine VIM-containing filamentous structures”. In addition, the “lower molecular weight VIM degradation products” value at VIM [3] is on record as “dose-dependent accumulation”. Besides, in the experiment on FOXC2-HMLER cells [4], the “chromosome alignment to the metaphase plate” value is recorded as “unaligned chromosomes during metaphase”. For the same molecule, the “multinucleated FOXC2-HMLER cells” value in the experiment on FOXC2-HMLER cells [5] is reported as “significant increase”.

The IC50 is the midpoint of a concentration-inhibition curve. As for `COc1cccc2c1C(=O)c1c(O)c3c(c(O)c1C2=O)C[C@@](O)(C(=O)CO)C[C@@H]3O[C@H]1C[C@H](N)[C@H](O)[C@H](C)O1` [doxorubicin, reference compound], the results for the IC50 (in experiment [6]; in the experiment on control HMLER cells) were 447 nM and 267 nM, respectively.

The values above are taken from US11759461B2, “Small molecule inhibitors of cancer stem cells and mesenchymal cancer types” (The Scripps Research Institute, priority 2017, dated 2023).
